In patent US20100099130A1, “METHODS AND DEVICES FOR MONITORING PLATELET FUNCTION” (PLACOR INC., priority 2006, published 2010):

Key:
[1] = test system: platelet adhesion; conditions: long-term aspirin therapy; cited from earlier work
[2] = test system: platelets; assay: Platelet Reactivity Test (PRT), time to platelet mass formation in whole blood of volunteers; assay type: in vivo, human; conditions: after taking aspirin, most volunteers; without aspirin the test concludes in less than 100 seconds
Method: The PRT test is used to activate platelet gel formations using a small (20 microliter) whole blood sample to help identify proper platelet function in the absence of platelet drug therapy and to identify inhibited platelet function in the presence of platelet drug therapy. The test is performed by running a small quantity of blood through a channel restriction that will induce the formation of platelet gels and trap them in a focused area similar to the way platelets are activated and focused in the body. Cartridge 150 has capillary tube inlet 160 that can receive a capillary tube filled with blood. A capillary tube filled with blood can be attached to capillary tube port 200. Conduit 230 leads from capillary tube port 200 to junction 270 and junction 270 splits into conduit 250 and passageways 240, 260. Conduit 250 and passageways 240, 260 include overflow wells 280. Conduit 250 and passageways 240, 260 lead to ports 180, 170, 190, respectively. […] In a preferred embodiment, the cartridge 150 has a bar code that is read by the instrument 400. […] The instrument 400 will report the average of the platelet reactivity times determined from the blood in passageways 240 and 260. […] If the two platelet reactivity times determined from the blood in passageways 240 and 260 are greatly different, the instrument will indicate that the test is invalid. […]

With `CC(=O)Oc1ccccc1C(=O)O` [aspirin] as the compound, how does the “individuals who do not achieve inhibition of platelet adhesion” value [1] read?
The value was “up to 30%”.

And the “PRT (platelet reactivity time)” value [2]?
Its value is “greater than 150 seconds”.
